In general, IC50 refers to the concentration that inhibits the measured activity by half.

The results in this text go back to ChEMBL document CHEMBL1134380, “Discovery and optimization of a novel series of thrombin receptor (par-1) antagonists: potent, selective peptide mimetics based on indole and indazole templates” (J Med Chem, 2001).

For test [1], the target named is T1, Proteinase-activated receptor 1 (Homo sapiens, UniProt P25116).
T1 sequence (P25116 whole entry): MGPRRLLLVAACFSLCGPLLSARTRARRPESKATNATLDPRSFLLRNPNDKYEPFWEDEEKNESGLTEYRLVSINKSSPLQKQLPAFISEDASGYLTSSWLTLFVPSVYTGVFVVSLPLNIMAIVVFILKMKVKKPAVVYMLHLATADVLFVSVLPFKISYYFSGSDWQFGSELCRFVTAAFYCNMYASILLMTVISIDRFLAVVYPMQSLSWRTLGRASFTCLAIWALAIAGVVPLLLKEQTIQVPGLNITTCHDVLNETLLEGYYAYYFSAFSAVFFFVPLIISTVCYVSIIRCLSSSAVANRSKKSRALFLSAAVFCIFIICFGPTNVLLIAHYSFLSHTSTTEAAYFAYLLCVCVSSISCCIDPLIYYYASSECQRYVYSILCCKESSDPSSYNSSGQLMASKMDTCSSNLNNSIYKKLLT
Put plainly: Binding affinity against Protease-activated receptor (PAR-1) using [3H]-s-(p-F-Phe)-homoarginine-L-homoarginine-KY-NH2, 10 nM (Kd= 15 nM).

A short description of test [2]: In vitro antagonist activity against collagen induced gel-filtered platelet (GFP) aggregation at 3 ug/mL.
Test [3] can be described thus: In vitro antagonist activity against SFLLRN-NH2 induced gel-filtered platelet (GFP) aggregation at 2 uM. Format: functional.
The nature of test [4]: Proliferation by RASMC proliferation assay at 0.8 nM alpha thrombin. Set-up: unit not given here.
Test [5] can be described thus: Calcium flux by HMVEC Calcium mobilization assay at 2.0 nM alpha thrombin. Format: functional. Set-up: unit not given here. For orientation: Calcium flux is commonly read through the fluorescence of an indicator in the cells.
Test [6] can be described thus: Calcium flux by RASMC Calcium mobilization assay at 2.0 nM alpha thrombin. Format: functional. Also noted: unit not given here.
Test [7] is described as follows: In vitro antagonist activity against U-46,619 induced gel-filtered Platelet (GFP) aggregation at 50 uM; NA=Inactive. In kind it is functional.
Test [8] can be described thus: In vitro antagonist activity against U-46,619 induced gel-filtered Platelet (GFP) aggregation at 0.3 uM. In kind it is functional.
A short description of test [9]: in vitro antagonist activity against U-46,619 induced gel-filtered Platelet (GFP) aggregation at 0.3 uM. In kind it is functional.
Test [10] deals with T1, Proteinase-activated receptor 1. Put plainly: Binding Affinity of ligand against Protease-activated Receptor (PAR-1) using [3H]-s-(p-F-Phe)-homoarginine-L-homoarginine-KY-NH2, 10 nM (Kd= 15 nM).

On to `N=C(N)NCCC[C@H](NC(=O)[C@H](Cc1ccccc1)NC(=O)Nc1ccc2c(CN3CCCC3)cn(Cc3ccc(F)cc3)c2c1)C(=O)NCc1ccccc1`, for which the half-maximal inhibitory concentration (IC50) in [1] was determined as 700 nM; in test [2], 12.7 µM; in test [3], 300 nM.

As to `COc1ccc(C[C@H](NC(=O)Nc2ccc3c(CN4CCCC4)cn(Cc4c(Cl)cccc4Cl)c3c2)C(=O)N[C@@H](CCCNC(=N)N)C(=O)NCc2ccccc2)cc1` [RWJ-54003], the Proliferation in test [4] was 7.3. Also, the IC50 in [1] was 1300 nM; in [2], 46.3 µM; in test [3], 300 nM; in [7], “Not Active”. In addition, the Ca2+ flux came out at 0.33 in test [5] and 0.93 in test [6].

As for `COc1ccc(C[C@H](NC(=O)Nc2ccc3c(CN4CCCC4)cn(Cc4ccc(F)cc4)c3c2)C(=O)N[C@@H](CCCN=C(N)N)C(=O)NCc2ccccc2)cc1`, the Proliferation in test [4] was > 30. Besides, the values for the concentration for half-maximal inhibition (IC50) in test [1], in [3] and in [7] were 2200 nM, 270 nM and “Not Active”, respectively. Moreover, the Ca2+ flux in test [5] turned out to be 0.54; in [6], 7.8.

In the case of `COc1ccc(C[C@H](NC(=O)Nc2ccc3c(CN4CCCC4)cn(Cc4ccc(OC(F)(F)F)cc4)c3c2)C(=O)N[C@@H](CCCN=C(N)N)C(=O)NCc2ccccc2)cc1`, the IC50 was 2400 nM in test [1], 25.5 µM in test [8], 24.2 µM in [2] and 3200 nM in test [3].

On to `N=C(N)NCCC[C@H](NC(=O)[C@H](Cc1ccc(F)c(F)c1)NC(=O)Nc1ccc2c(CN3CCCC3)cn(Cc3c(Cl)cccc3Cl)c2c1)C(=O)NCc1ccncc1`, for which the IC50 worked out at 13.3 µM in [9], 40 nM in test [1] and 360 nM in [3]. The Proliferation in [4] turned out to be 6.5. In addition, the figures for the Ca2+ flux in [5] and in test [6] were 0.17 and 0.21, respectively.

For `N=C(N)NCCC[C@H](NC(=O)[C@H](Cc1ccc(F)c(F)c1)NC(=O)Nc1ccc2c(CN3CCCC3)cn(Cc3c(Cl)cccc3Cl)c2c1)C(=O)NCc1ccccc1`, the Proliferation in test [4] was determined as 2.4. Besides, the results for the IC50 in [1], in test [3] and in test [7] were 820 nM, 180 nM and “Not Active”, respectively. Besides, the values for the Ca2+ flux in test [5] and in test [6] were 0.09 and 0.13, respectively.

On to `NCC[C@H](NC(=O)[C@H](Cc1ccc(F)c(F)c1)NC(=O)Nc1ccc2c(CN3CCCC3)nn(Cc3c(Cl)cccc3Cl)c2c1)C(=O)NCc1ccccc1` [RWJ-58259], for which the IC50 is 150 nM in test [10], 110 nM in test [3] and “Not Active” in test [7]. Also, the Proliferation in [4] is 2.3. The Ca2+ flux in test [6] came out at 0.07.

For `COc1ccc(C[C@H](NC(=O)Nc2ccc3c(CNC4CCCC4)cn(Cc4ccc(F)cc4)c3c2)C(=O)N[C@@H](CCCN=C(N)N)C(=O)NCc2ccccc2)cc1`, the concentration for half-maximal inhibition (IC50) in test [1] is 10700 nM; in test [8], 49.1 µM; in test [2], 41.4 µM; in [3], 2200 nM.
